One test has as its target T1, XylA (Escherichia coli, UniProt P00944).
T1 construct: full length, N-terminal His tag, expressed in E. coli BL21(DE3)pLysS
T1 sequence (P00944 1-440): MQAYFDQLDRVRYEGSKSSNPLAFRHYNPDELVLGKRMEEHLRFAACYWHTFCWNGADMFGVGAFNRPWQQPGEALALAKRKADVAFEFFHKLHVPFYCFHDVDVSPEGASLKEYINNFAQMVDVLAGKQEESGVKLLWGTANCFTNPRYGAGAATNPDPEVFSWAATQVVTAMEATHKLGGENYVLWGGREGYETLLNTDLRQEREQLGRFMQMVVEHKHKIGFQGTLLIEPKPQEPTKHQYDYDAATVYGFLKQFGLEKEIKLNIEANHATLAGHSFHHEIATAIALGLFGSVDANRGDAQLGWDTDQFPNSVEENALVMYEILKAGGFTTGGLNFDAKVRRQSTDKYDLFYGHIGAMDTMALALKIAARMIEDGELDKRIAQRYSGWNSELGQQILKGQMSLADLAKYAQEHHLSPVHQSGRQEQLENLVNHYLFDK
In words: HPLC-RI substrate conversion, overnight. It counts as biochemical. To be noted: 30 °C, 50 mM HEPES pH 7.4, 10 mM MgCl2, 5 mM MgATP.

The target of test [1] is T2, T18 xylose isomerase (XI) (Thraustochytrium sp. ONC-T18, UniProt A0A385ZBK6).
T2 construct: gene xylA
T2 sequence (A0A385ZBK6 1-439): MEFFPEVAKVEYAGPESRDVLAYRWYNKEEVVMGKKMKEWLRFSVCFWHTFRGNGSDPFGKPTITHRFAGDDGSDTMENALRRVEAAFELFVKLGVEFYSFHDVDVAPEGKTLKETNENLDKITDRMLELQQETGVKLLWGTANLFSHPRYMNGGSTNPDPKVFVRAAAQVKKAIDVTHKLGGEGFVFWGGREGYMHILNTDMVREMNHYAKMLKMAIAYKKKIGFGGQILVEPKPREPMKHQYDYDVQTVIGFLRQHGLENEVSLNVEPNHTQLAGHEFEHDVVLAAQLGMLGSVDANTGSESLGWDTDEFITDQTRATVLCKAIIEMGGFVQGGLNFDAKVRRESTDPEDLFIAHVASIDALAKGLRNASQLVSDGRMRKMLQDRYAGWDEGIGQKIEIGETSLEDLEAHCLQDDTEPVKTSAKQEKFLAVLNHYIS
In words: HPLC-RI substrate conversion, overnight. Format: biochemical. To be noted: 50 °C, 50 mM HEPES pH 7.4, 10 mM MgCl2, 5 mM MgATP; partly pure fraction.

The source of these data is paper PMC6139898, “Engineering xylose metabolism in thraustochytrid T18” (Biotechnology for Biofuels, 2018).

The structures appear in SMILES notation.

For `O=C(CO)[C@@H](O)[C@H](O)CO` [xylulose], the “HPLC-RI substrate conversion, overnight” value at XylA is “Both XylA and T18 xylose isomerase showed increased activity on both sugars”; in test [1], “Both XylA and T18 xylose isomerase showed increased activity on both sugars”.
Turning to `OC1OC[C@@H](O)[C@H](O)[C@H]1O` (stereo partly shown) [xylose], the “HPLC-RI substrate conversion, overnight” value at XylA is “Both XylA and T18 xylose isomerase showed increased activity on both sugars”; in test [1] it was “Both XylA and T18 xylose isomerase showed increased activity on both sugars”.
